Data as given in patent US8530650B2, “2, 5-diamino-substituted pyrido [4, 3-D] pyrimidines as autotaxin inhibitors against cancer” (MERCK PATENT GmbH, priority 2008, dated 2013).

biological target: T1, recombinant autotaxin (Homo sapiens, UniProt Q13822); assay: Autotaxin assay (Amplex Red, LPC substrate); format: biochemical; details: 75 μM LPC, Amplex Red fluorescence, ten 1:3 dilutions starting at 30 μM
T1 construct: made in house; host or cells: Hi5 insect cells (baculovirus)
Method: Autotaxin activity is measured indirectly by means of Amplex Red Reagent. In this course, Amplex Red is measured as fluorogenic indicator for generated H2O2. Autotaxin converts substrate lysophosphatidylcholine (LPC) to phosphocholine and lysophosphatidylic acid (LPA). After the conversion phosphocholine is reacted with alkaline phosphatase to obtain inorganic phosphate and choline. During the next step choline is oxidized with choline oxidase to yield betaine, whereby H2O2 is generated. H2O2 reacts with Amplex Red Reagent in the presence of peroxidase (Horseradish peroxidase) in an 1:1 stochiometry and yields highly fluorescent resorufin. The generated fluorescence is measured in a reaction-dependent kinetic mode in order to enable subtraction of fluorescence signals of possible other fluorescent compounds that are not part of the reaction from total measured fluorescence.
1.5 μl of a standard solution or of the compounds of the invention are dissolved in 20 mM Hepes pH 7.2 with maximally 7.7% DMSO in individual concentrations. The resulting solution is pre-incubated together with 10 μl (16 ng) of highly purified recombinant autotaxin in a black 384-hole microtiter plate for 30 min at 22° C. Thereafter, the reaction is started through the addition of 5 μL-a-lysophosphatidylcholine (LPC), whereby the final concentration of LPC is 75 μM. The mixture is incubated for 90 min. at 37° C. After the incubation Amplex Red Reagent, peroxidase (Horseradish peroxidase) and choline oxidase are added. The fluorescence is immediately measured at a wavelength of 612 nm with an excitation wavelength of 485 nm in a “Tecan Ultra multimode” fluorescence reader. The activity of autotaxin is indirectly calculated via the amount of detected generated H2O2.
For IC50 analysis, ten serial 1:3 dilutions starting at 30 μM for each compound were run in duplicates.
IC50 values were calculated on normalized data. For normalization, control wells were added to each assay plate and the signal of uninhibited control wells was set to 100%, whereas the signal inhibited by 500 μM C14 LPA, (Avanti Polar Lipids, Cat# 857120P) was set to 0%. Curves were fitted and IC50 values calculated by the following model using proprietary analysis software: Y=Bottom+(100−Bottom)/(1+10^((LogIC50−X)*HillSlope))
Where X is the logarithm of concentration. Y is the response; Y starts at Bottom and goes to Top with a sigmoid shape.
Protein: Recombinant autotaxin (baculoviral Hi5 expression)
Substrate: L-a-lysophosphatidyl choline (chicken egg); Avanti Polar Lipids #830071 P
Standard: C14 LPA, Avanti Polar Lipids, Cat# 857120P
Detection Reagent Amplex Red Reagent; Invitrogen #A12222; dissolved in 1.923 ml of DMSO peroxidase Type VI-A (horseradish), Sigma #P6782; dissolved in 7.45 ml of test buffer, Choline Oxidase; Sigma #C5896; dissolved in 2.47 ml test buffer
Detection Reagent Mix: 1:100 dilution of Amplex Red Regent in test buffer
Test buffer: 200 mM Tris-HCl, Merck, Cat # 1.08219, pH 7.9; 0.1% BSA, lipid free, Roche Cat#775835

IC50, < 5 µM:
O=C(NCc1cccnc1)C1CCN(c2nccc3nc(NCc4ccccc4Cl)ncc23)CC1 [Compound 62, 1-[2-(2-Chloro-benzylamino)-pyrido[4,3-d]pyrimidin-5-yl]-piperidine-4-carboxylic acid (pyridin-3-ylmethyl)-amide]
O=C(NCc1ccco1)C1CCN(c2nccc3nc(NCc4ccccc4Cl)ncc23)CC1 [Compound 65, 1-[2-(2-Chloro-benzylamino)-pyrido[4,3-d]pyrimidin-5-yl]-piperidine-4-carboxylic acid (furan-2-ylmethyl)-amide]
O=C(C1CCN(c2nccc3nc(NCc4ccccc4Cl)ncc23)CC1)N1CCCC1 [Compound 66, {1-[2-(2-Chloro-benzylamino)-pyrido[4,3-d]pyrimidin-5-yl]-piperidin-4-yl}-pyrrolidin-1-yl-methanone]

IC50, < 30 µM:
COc1ccccc1CNc1ncc2c(Nc3ccccc3C)nccc2n1 [Compound 34, N2-(2-Methoxy-benzyl)-N5-o-tolyl-pyrido[4,3-d]pyrimidine-2,5-diamine]
COc1ccc(Nc2nccc3nc(NCc4ccccc4OC)ncc23)cc1 [Compound 35, N2-(2-Methoxy-benzyl)-N5-(4-methoxy-phenyl)-pyrido[4,3-d]pyrimidine-2,5-diamine]
COc1ccccc1CNc1ncc2c(Nc3ccc(C)cc3)nccc2n1 [Compound 36, N2-(2-Methoxy-benzyl)-N5-p-tolyl-pyrido[4,3-d]pyrimidine-2,5-diamine]
COc1ccccc1CNc1ncc2c(Nc3ccc(F)cc3F)nccc2n1 [Compound 37, N5-(2,4-Difluoro-phenyl)-N2-(2-methoxy-benzyl)-pyrido[4,3-d]pyrimidine-2,5-diamine]
COc1ccccc1CNc1ncc2c(Nc3ccc(OC)c(OC)c3)nccc2n1 [Compound 38, N5-(3,4-Dimethoxy-phenyl)-N2-(2-methoxy-benzyl)-pyrido[4,3-d]pyrimidine-2,5-diamine]
COc1ccccc1CNc1ncc2c(Nc3ccc4c(c3)OCCO4)nccc2n1 [Compound 39, N5-(2,3-Dihydro-benzo[1,4]dioxin-6-yl)-N2-(2-methoxy-benzyl)-pyrido[4,3-d]pyrimidine-2,5-diamine]
COc1ccc(Nc2nccc3nc(NCc4ccccc4OC)ncc23)c(OC)c1 [Compound 40, N5-(2,4-Dimethoxy-phenyl)-N2-(2-methoxy-benzyl)-pyrido[4,3-d]pyrimidine-2,5-diamine]
COc1ccccc1CNc1ncc2c(Nc3ccc(F)cc3C)nccc2n1 [Compound 41, N5-(4-Fluoro-2-methyl-phenyl)-N2-(2-methoxy-benzyl)-pyrido[4,3-d]pyrimidine-2,5-diamine]
Fc1ccc(Nc2nccc3nc(NCc4ccc(Cl)cc4)ncc23)cc1 [Compound 42, N2-(4-Chloro-benzyl)-N5-(4-fluoro-phenyl)-pyrido[4,3-d]pyrimidine-2,5-diamine]
Cc1ccccc1Nc1nccc2nc(NCc3ccc(Cl)cc3)ncc12 [Compound 43, N2-(4-Chloro-benzyl)-N5-o-tolyl-pyrido[4,3-d]pyrimidine-2,5-diamine]
COc1ccc(Nc2nccc3nc(NCc4ccc(Cl)cc4)ncc23)cc1 [Compound 44, N2-(4-Chloro-benzyl)-N5-(4-methoxy-phenyl)-pyrido[4,3-d]pyrimidine-2,5-diamine]
Fc1ccc(Nc2nccc3nc(NCc4ccc(Cl)cc4)ncc23)c(F)c1 [Compound 45, N2-(4-Chloro-benzyl)-N5-(2,4-difluoro-phenyl)-pyrido[4,3-d]pyrimidine-2,5-diamine]
Clc1ccc(CNc2ncc3c(Nc4ccc5c(c4)OCO5)nccc3n2)cc1 [Compound 46, N5-Benzo[1,3]dioxol-5-yl-N2-(4-chloro-benzyl)-pyrido[4,3-d]pyrimidine-2,5-diamine]
COc1ccc(Nc2nccc3nc(NCc4ccc(Cl)cc4)ncc23)cc1OC [Compound 47, N2-(4-Chloro-benzyl)-N5-(3,4-dimethoxy-phenyl)-pyrido[4,3-d]pyrimidine-2,5-diamine]
Fc1ccc(Nc2nccc3nc(NCc4ccc(Cl)cc4)ncc23)cc1F [Compound 48, N2-(4-Chloro-benzyl)-N5-(3,4-difluoro-phenyl)-pyrido[4,3-d]pyrimidine-2,5-diamine]
Cc1cc(F)ccc1Nc1nccc2nc(NCc3ccc(Cl)cc3)ncc12 [Compound 49, N2-(4-Chloro-benzyl)-N5-(4-fluoro-2-methyl-phenyl)-pyrido[4,3-d]pyrimidine-2,5-diamine]
COC(=O)c1ccc(Nc2nccc3nc(NCc4ccc(Cl)cc4)ncc23)cc1 [Compound 50, 4-[2-(4-Chloro-benzylamino)-pyrido[4,3-d]pyrimidin-5-ylamino]-benzoic acid methyl ester]
COc1ccc(CNc2ncc3c(Nc4cc(OC)ccc4OC)nccc3n2)cc1 [Compound 51, N5-(2,5-Dimethoxy-phenyl)-N2-(4-methoxy-benzyl)-pyrido[4,3-d]pyrimidine-2,5-diamine]
COc1ccc(CNc2ncc3c(Nc4ccc(F)cc4F)nccc3n2)cc1 [Compound 52, N5-(2,4-Difluoro-phenyl)-N2-(4-methoxy-benzyl)-pyrido[4,3-d]pyrimidine-2,5-diamine]
COc1ccc(CNc2ncc3c(Nc4ccc5c(c4)OCO5)nccc3n2)cc1 [Compound 53, N5-Benzo[1,3]dioxol-5-yl-N2-(4-methoxy-benzyl)-pyrido[4,3-d]pyrimidine-2,5-diamine]
COc1ccc(CNc2ncc3c(Nc4ccc(OC)c(OC)c4)nccc3n2)cc1 [Compound 54, N5-(3,4-Dimethoxy-phenyl)-N2-(4-methoxy-benzyl)-pyrido[4,3-d]pyrimidine-2,5-diamine]
COc1ccc(CNc2ncc3c(Nc4ccc5c(c4)OCCO5)nccc3n2)cc1 [Compound 55, N5-(2,3-Dihydro-benzo[1,4]dioxin-6-yl)-N2-(4-methoxy-benzyl)-pyrido[4,3-d]pyrimidine-2,5-diamine]
COc1ccc(CNc2ncc3c(Nc4ccc(OC)cc4OC)nccc3n2)cc1 [Compound 56, N5-(2,4-Dimethoxy-phenyl)-N2-(4-methoxy-benzyl)-pyrido[4,3-d]pyrimidine-2,5-diamine]
COc1ccc(CNc2ncc3c(Nc4ccc(C#N)cc4)nccc3n2)cc1 [Compound 57, 4-[2-(4-Methoxy-benzylamino)-pyrido[4,3-d]pyrimidin-5-ylamino]-benzonitrile]
COc1ccc(CNc2ncc3c(Nc4ccc(F)c(F)c4)nccc3n2)cc1 [Compound 58, N5-(3,4-Difluoro-phenyl)-N2-(4-methoxy-benzyl)-pyrido[4,3-d]pyrimidine-2,5-diamine]
O=C(NCc1ccco1)C1CCN(c2nccc3nc(NCc4ccccc4)ncc23)CC1 [Compound 60, 1-(2-Benzylamino-pyrido[4,3-d]pyrimidin-5-yl)-piperidine-4-carboxylic acid (furan-2-ylmethyl)-amide]
CC(C)NC(=O)C1CCN(c2nccc3nc(NCc4ccccc4)ncc23)CC1 [Compound 61, 1-(2-Benzylamino-pyrido[4,3-d]pyrimidin-5-yl)-piperidine-4-carboxylic acid isopropylamide]

IC50, < 10 µM:
COc1ccc(CNc2ncc3c(Nc4ccc(F)cc4C)nccc3n2)cc1 [Compound 59, N5-(4-Fluoro-2-methyl-phenyl)-N2-(4-methoxy-benzyl)-pyrido[4,3-d]pyrimidine-2,5-diamine]
CCN(CC)CCCNC(=O)C1CCN(c2nccc3nc(NCc4ccccc4Cl)ncc23)CC1 [Compound 63, 1-[2-(2-Chloro-benzylamino)-pyrido[4,3-d]pyrimidin-5-yl]-piperidine-4-carboxylic acid (3-diethylamino-propyl)-amide]
CN(C)CCNC(=O)C1CCN(c2nccc3nc(NCc4ccccc4Cl)ncc23)CC1 [Compound 64, 1-[2-(2-Chloro-benzylamino)-pyrido[4,3-d]pyrimidin-5-yl]-piperidine-4-carboxylic acid (2-dimethylamino-ethyl)-amide]
